According to PubChem BioAssay (NCI):
Where “and” joins values, the source holds several entries; their conditions need not be identical. Equal entries are not always repeated.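 Five concentrations, 48 hours, 96-well plates. GI50 marks 50% less growth. TGI is the concentration that stops growth completely.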

Legend:
Assay in all cases: NCI anticancer screen, dose series, 48 h
EKVX NSCLC = test system: EKVX NSCLC
OVCAR-4 ovarian = test system: OVCAR-4 ovarian
ACHN renal = test system: ACHN renal
HCT-116 colon = test system: HCT-116 colon
SF-268 CNS = test system: SF-268 CNS
RXF 393 renal = test system: RXF 393 renal
NCI-H460 lung = test system: NCI-H460 lung
UACC-257 melanoma = test system: UACC-257 melanoma
NCI-H23 lung = test system: NCI-H23 lung
A498 renal = test system: A498 renal

Structure (SMILES) | TGI (EKVX NSCLC) | TGI (OVCAR-4 ovarian) | TGI (ACHN renal) | TGI (HCT-116 colon) | TGI (SF-268 CNS) | TGI (RXF 393 renal) | TGI (NCI-H460 lung) | TGI (UACC-257 melanoma) | TGI (NCI-H23 lung) | TGI (A498 renal) | GI50 (EKVX NSCLC) | GI50 (OVCAR-4 ovarian) | GI50 (ACHN renal) | GI50 (HCT-116 colon) | GI50 (SF-268 CNS) | GI50 (RXF 393 renal) | GI50 (NCI-H460 lung) | GI50 (UACC-257 melanoma) | GI50 (NCI-H23 lung) | GI50 (A498 renal)
COc1cc(C(=O)c2cocc2C(=O)c2ccc3c(c2)OCO3)cc(OC)c1OC | > 58.3 µM | > 54.3 µM | > 48.4 µM | 24.4 µM | 45 µM | 4.43 µM | 23.4 µM | > 45.7 µM | 26.2 µM | 26.2 µM | – | – | – | – | – | – | – | – | – | –
COc1ccc(OC(C)C(=O)O)c2c(=O)ccccc12 (centres undefined) | > 100 µM | > 100 µM | > 100 µM | – | > 100 µM | > 100 µM | > 100 µM | > 100 µM | > 100 µM | > 100 µM | – | – | – | – | – | – | – | – | – | –
O=c1[nH]c(=O)n(C2CC(O)C(CO)O2)cc1C(F)(F)F (centres undefined) | > 100 µM | > 100 µM | > 100 µM | > 100 µM | > 100 µM | > 100 µM | > 100 µM | > 100 µM | > 100 µM | > 92 µM | > 54.1 µM | > 100 µM | 1.3 µM | 1.7 µM | 3.14 µM | 9.38 µM | 0.337 µM | 8.61 µM | 1.95 µM | –
CC(=O)Oc1ccc2c(c1)C(=O)c1nc(C)c(C)nc1C2=O | > 78.6 µM | > 89 µM | > 100 µM | > 100 µM | > 100 µM | 96.4 µM | > 90.1 µM | > 66.4 µM | > 100 µM | > 91.7 µM | – | – | – | – | – | – | – | – | – | –
CC(SCc1ccccc1)C(=O)O (centres undefined) | > 100 µM | > 100 µM | > 100 µM | > 100 µM | > 100 µM | > 100 µM | > 100 µM | > 100 µM | > 100 µM | > 100 µM | – | – | – | – | – | – | – | – | – | –
C[N+](C)=c1ccc2nc3c(cc(NCCCNc4cc5oc6cc(=[N+](C)C)ccc-6nc5c5ccccc45)c4ccccc43)oc-2c1 | 18.5 µM | 2.08 µM | 11.3 µM | 5.79 µM | 9.2 µM | 37.5 µM | 4.06 µM | 16.3 µM | 5.45 µM | 46.9 µM | 4.77 µM | 0.715 µM | 2.17 µM | 1.95 µM | 2.17 µM | 6.04 µM | 1.89 µM | 4.34 µM | 1.61 µM | 19.1 µM
CNC(=O)c1ccccc1Nc1nc(Nc2ccc3c(c2OC)CCC[C@H](N2CCN(CCO)CC2)C3)ncc1Cl | 13.7 µM and > 10 µM | 13.4 µM and > 10 µM | 11.3 µM and > 10 µM | 4.24 µM and 3.95 µM | 16.5 µM and > 10 µM | 7.3 µM and > 10 µM | 13.3 µM and > 10 µM | 3.87 µM and 3.42 µM | 15 µM and > 10 µM | 3.23 µM and 9.95 µM | 1.75 µM and 1.72 µM | 1.72 µM and 3.45 µM | 1.16 µM and 1.43 µM | 1.3 µM and 1.05 µM | 3.23 µM and 3.22 µM | 1.68 µM and 1.98 µM | 0.892 µM and 0.574 µM | 1.52 µM and 1.29 µM | 2.5 µM and 1.21 µM | 1.38 µM and 2.22 µM
CCn1c(-c2nonc2N)nc2c(N3CCCC3)nccc21 | > 25 µM | > 25 µM | > 25 µM | > 25 µM | > 25 µM | > 25 µM | > 25 µM | > 25 µM | > 25 µM | > 25 µM | > 25 µM | 10.3 µM | 9.73 µM | 8.47 µM | 13.3 µM | 9.63 µM | 8.95 µM | > 22.4 µM | 14.9 µM | 8.39 µM
CC1c2[nH]c3ccccc3c2CCN1O (centres undefined) | > 100 µM | > 100 µM | > 100 µM | > 100 µM | > 100 µM | > 100 µM | – | > 100 µM | > 100 µM | > 100 µM | – | – | – | – | – | – | – | – | – | –
N#Cc1cccc(N2C(=O)C3C4C=CC(C3C2=O)C2C(=O)N(c3cccc(C#N)c3)C(=O)C42)c1 (centres undefined) | > 100 µM | > 63.1 µM | 55.2 µM | 31.6 µM | 49.7 µM | 22.9 µM | > 63.1 µM | > 63.1 µM | 52.5 µM | 42 µM | – | – | – | – | – | – | – | – | – | –
Cc1ccc(C(=O)NC2CC2)cc1-c1ccc2[nH]ncc2c1 | > 25 µM | > 25 µM | > 25 µM | > 25 µM | > 25 µM | > 25 µM | > 25 µM | > 25 µM | > 25 µM | > 25 µM | > 25 µM | > 25 µM | > 25 µM | > 25 µM | > 25 µM | > 25 µM | > 25 µM | > 25 µM | > 25 µM | > 12.7 µM
c1ccc(OC2=NC3=S(S2)SC(Oc2ccccc2)=N3)cc1 | 48.3 µM | – | 42.5 µM | 33.4 µM | 57.6 µM | 24.2 µM | > 100 µM | 34.7 µM | 49 µM | 75 µM | – | – | – | – | – | – | – | – | – | –
CC(C)(C)OC(=O)N[C@@H](Cc1ccccc1)C(=O)N(Cc1ccccc1)C1(C(=O)NCc2ccccc2)CCN(Cc2ccccc2)CC1 | – | > 100 µM | – | 10.1 µM | > 100 µM | > 100 µM | 87.6 µM | > 100 µM | > 100 µM | 6.36 µM | – | 3.23 µM | – | 2.42 µM | 4.88 µM | 3.12 µM | 3 µM | 2.54 µM | 5.67 µM | 1.43 µM
O=c1/c(=N\Nc2ccccc2)c2cccc3ccc4cccc1c4c32 | > 100 µM | > 100 µM | 88.6 µM | > 100 µM | > 100 µM | > 100 µM | – | > 100 µM | > 100 µM | > 100 µM | – | – | – | – | – | – | – | – | – | –
Nc1ccc(/C=C/c2ccc3cccnc3c2)cc1 | > 100 µM | – | > 100 µM | > 100 µM | > 100 µM | > 100 µM | > 100 µM | > 100 µM | > 100 µM | > 100 µM | – | – | – | – | – | – | – | – | – | –
C=C1C(OC(C)=O)CC(OC(C)=O)C2(C)C(OC(C)=O)C(OC(C)=O)C3=C(C)C(OC(=O)/C=C/c4ccccc4)CC(C(OC(C)=O)C12)C3(C)C (centres undefined) | – | > 100 µM | > 100 µM | > 100 µM | > 100 µM | > 100 µM | > 100 µM | > 100 µM | – | > 100 µM | – | – | – | – | – | – | – | – | – | –
COC(=O)N/N=C(\C)CC(=O)Nc1ccc(Cl)cc1 | > 100 µM | – | – | > 100 µM | > 100 µM | > 100 µM | > 100 µM | > 100 µM | > 100 µM | > 100 µM | – | – | – | – | – | – | – | – | – | –
CCn1c2ccccc2c2cc(C(=O)c3ccc(C)c4ccccc34)ccc21 | > 100 µM | > 100 µM | > 100 µM | 14.5 µM | > 100 µM | 2.71 µM | > 100 µM | > 100 µM | – | 1.15 µM | 0.528 µM | 3.32 µM | 0.729 µM | 0.344 µM | 0.877 µM | 0.35 µM | 0.356 µM | 39.3 µM | – | 0.282 µM
